Where a name gives a salt, the structure may show the parent alone.
Legend:
[1] = test system: REC1_13 (MspI GCCC 216) mRNA; assay: quantified RT-PCR, Rec1_13; format: in vivo, rabbit; details: for Relative Abundance Rec1_13, 100 pg F: hypercholesterolemic plus lercanidipine racemate, eight weeks, H2 (normocholesterolemic)=1.0
Description: (§1) Nineteen of the isolated DST clones were further validated using RT-PCR analyses; the data are presented in FIGS. 6-24 and in Tables 5-23, below. For each DST examined, the optimal annealing temperature and reagent conditions were determined for the corresponding set of primers (see Table 25) based on results from a preliminary experiment. In eight separate reactions, each set of primers was assayed to find the optimal conditions by adjusting the following four parameters: primer concentration, dNTP concentration, MgCl2 concentration, and number of Taq polymerase units. Once optimal conditions were determined, each DST was run in duplicate multiple simultaneous reactions which usually included at least four dilutions of template (cDNA library), plus control reactions lacking template, and six sequential data points for numbers of cycles.
(§2) Reactions were performed using “Hot Start” PCR with the Clontech TaqStart antibody system (Cat. #5400-1). Each reaction contained 1 ml of the cDNA library dilution as template, determined amounts of AmpliTaq DNA polymerase (cat. #N808-0156), MgCl2, dNTPs (GibcoBRL cat. #10297-018), primer, and Clontech TaqStart Antibody in a 20 ml final reaction volume using 10×Taq buffer II (without MgCl2). Typically, a master mix containing all components except the template was prepared and aliquoted. Various templates were then added to these master mix samples and 20 ml volumes were subsequently dispensed into individual reaction tubes. At various times during the PCR run, tubes were removed sequentially on a predetermined schedule in order to quantitate expression of the target DST over a “window” of cycle times. After amplification, the samples were quantified via fluorimetry.
(§3) PCR was performed at annealing temperatures that were five degrees above the average melting temperature of each primer pair. For primers greater than 10 bases (in a 0.05M salt solution), melting temperature was calculated using the following formula: Tm=59.9+41[% GC]−[675/Primer Length], where %GC is the decimal value. Following determination of the average melting temperature of the primer pair, the annealing temperature was determined by adding five degrees to the average melting temperature. PCR was performed using the following program: 1) 95 degrees Celsius, 3 minutes; 2) 95 degrees Celsius, 30 seconds; 3) TM+5 degrees Celsius, 30 seconds; 4) 72 degrees Celsius, for a time dependent on target length at 16 bp/second; 5) repeat steps 2-4 33 more cycles; 6) 72 degrees Celsius, 3 minutes; 7) 14 degrees Celsius, forever.
(§4) Following temperature cycling, 2 ml of the PCR reaction was added to 140 ml of a 1:280 dilution of PicoGreen (Molecular Probes cat. #P-11495 (10×100 ml)) in TE pH 7.5 in a 96-well Costar UV microtiter plate (Fisher cat. #07-200623). The samples were mixed gently for 1.5 minutes and allowed to equilibrate at room temperature in the dark for 15 minutes. The concentration of the PCR products was quantified by fluorimetry using a PerSeptive Biosystems CytoFluor series 4000 multi-well plate reader.
(§5) Background fluorescence was determined by using duplicate control samples that were cycled with all reaction components except the template. The mean value from these duplicate background control samples was subtracted from the corresponding experimental values prior to analyzing results. The sensitivity of the PicoGreen dsDNA assay is reported to be 250 pg/ml (50 pg dsDNA in a […] assay volume) using a fluorescence microplate reader such as was used in these measurements. […]

[2] = test system: REC1_18 (MspI TGGT 241) mRNA; assay: quantified RT-PCR, Rec1_18; format: in vivo, rabbit; details: for Relative Abundance Rec1_18, 20 pg F: hypercholesterolemic plus lercanidipine racemate, eight weeks, H2 (normocholesterolemic)=1.0
Description: as §1, §2, §3, §4, §5

REC1_17 (TCGT 199) mRNA = assay: quantified RT-PCR, Rec1_17; format: in vivo, rabbit; details: for Relative Abundance Rec1_17, 20 pg F: hypercholesterolemic plus lercanidipine racemate, eight weeks, H2 (normocholesterolemic)=1.0
Description: as §1, §2, §3, §4, §5

[3] = in vivo studies (Soma 1998); cited from earlier work
[4] = test system: REC1_3 (MspI ACGG 162) mRNA; assay: quantified RT-PCR, Rec1_3; format: in vivo, rabbit; details: for Relative Abundance Rec1_3, 500 pg F: hypercholesterolemic plus lercanidipine racemate, eight weeks, H2 (normocholesterolemic)=1.0
Description: as §1, §2, §3, §4, §5

[5] = arterial blood pressure in treated rabbits; format: in vivo; details: doses utilized (3 mg/kg/week subcutaneously)
Description: The daily doses of cholesterol (1.6 g) were given in the morning (at 08.00 hours) each mixed in 20 g of food pellets. Normal chow, up to 150 g, was added after all the cholesterol-rich diet was eaten (usually within 30 minutes). The hydrochloride salt of lercanidipine or (R)-lercanidipine (Recordati, Milano, Italy) was administered subcutaneously as a solution in 50% propylene glycol. […] Animals had free access to water and were kept in a 12 hour light-dark cycle. Blood was drawn from the central ear artery at day 29 after treatment, started in order to monitor the lercanidipine plasma level at 24 hour post-dose.

REC1_19 (TGTT 393) mRNA = assay: quantified RT-PCR, Rec1_19; format: in vivo, rabbit; details: for Relative Abundance Rec1_19, 100 pg F: hypercholesterolemic plus lercanidipine racemate, eight weeks, H2 (normocholesterolemic)=1.0
Description: as §1, §2, §3, §4, §5

[6] = test system: cholesterol acyl transferase; details: Soma et al. 1998; cited from earlier work
[7] = test system: REC1_2 (MspI AATC 108) mRNA; assay: quantified RT-PCR, Rec1_2; format: in vivo, rabbit; details: for Relative Abundance Rec1_2, 500 pg F: hypercholesterolemic plus lercanidipine racemate, eight weeks, H2 (normocholesterolemic)=1.0
Description: as §1, §2, §3, §4, §5

calcium channel = details: (R)-enantiomer compared with the other enantiomer of lercanidipine; cited from earlier work
[8] = hypercholesterolemic animals receiving lercanidipine racemate
[9] = hypercholesterolemic animals receiving lercanidipine

Structure (SMILES): COC(=O)C1=C(C)NC(C)=C(C(=O)OC(C)(C)CN(C)CCC(c2ccccc2)c2ccccc2)C1c1cccc([N+](=O)[O-])c1 (racemic) [lercanidipine, lercanidipine hydrochloride]
- Relative Abundance Rec1_13, 100 pg F ([1]; cycle 20): 1.4
- Relative Abundance Rec1_13, 100 pg F ([1]; cycle 22): 33.7
- Relative Abundance Rec1_13, 100 pg F ([1]; cycle 24): 3.0
- Relative Abundance Rec1_13, 100 pg F ([1]; cycle 26): 1.9
- Relative Abundance Rec1_13, 100 pg F ([1]; cycle 28): 1.2
- Relative Abundance Rec1_13, 100 pg F ([1]; cycle 30): 1.3
- expression of Rec1_13 at 8 weeks (RT-PCR study), in words [1, 8]: elevated
- Relative Abundance Rec1_18, 20 pg F ([2]; cycle 24): 169.0
- Relative Abundance Rec1_18, 20 pg F ([2]; cycle 26): 5.8
- Relative Abundance Rec1_18, 20 pg F ([2]; cycle 28): 1.0
- Relative Abundance Rec1_18, 20 pg F ([2]; cycle 30): 1.0
- Relative Abundance Rec1_18, 20 pg F ([2]; cycle 32): 1.4
- Relative Abundance Rec1_18, 20 pg F ([2]; cycle 34): 1.1
- expression of Rec1_18 at 8 weeks (RT-PCR study), in words [2, 8]: somewhat elevated
- Relative Abundance Rec1_17, 20 pg F (REC1_17 (TCGT 199) mRNA; cycle 24): 0.01
- Relative Abundance Rec1_17, 20 pg F (REC1_17 (TCGT 199) mRNA; cycle 26): 0.00
- Relative Abundance Rec1_17, 20 pg F (REC1_17 (TCGT 199) mRNA; cycle 28): 0.09
- Relative Abundance Rec1_17, 20 pg F (REC1_17 (TCGT 199) mRNA; cycle 30): 0.08
- Relative Abundance Rec1_17, 20 pg F (REC1_17 (TCGT 199) mRNA; cycle 32): 0.21
- Relative Abundance Rec1_17, 20 pg F (REC1_17 (TCGT 199) mRNA; cycle 34): 0.43
- expression of Rec1_17 at 8 weeks (RT-PCR study), in words (REC1_17 (TCGT 199) mRNA; [9]): decreased
- carotid intimal hyperplasia [3]: inhibit
- Relative Abundance Rec1_3, 500 pg F ([4]; cycle 26): 0.0
- Relative Abundance Rec1_3, 500 pg F ([4]; cycle 28): 0.0
- Relative Abundance Rec1_3, 500 pg F ([4]; cycle 30): 0.0
- Relative Abundance Rec1_3, 500 pg F ([4]; cycle 32): 0.1
- Relative Abundance Rec1_3, 500 pg F ([4]; cycle 34): 0.4
- expression of Rec1_3 at 8 weeks (RT-PCR study), in words ([4]; hypercholesterolemic animals receiving lercanidipine racemate, compared with hypercholesterolemic animals at 14 days): lower
- effect on arterial blood pressure [5]: did not affect
- Relative Abundance Rec1_19, 100 pg F (REC1_19 (TGTT 393) mRNA; cycle 24): 0.0
- Relative Abundance Rec1_19, 100 pg F (REC1_19 (TGTT 393) mRNA; cycle 26): 0.0
- Relative Abundance Rec1_19, 100 pg F (REC1_19 (TGTT 393) mRNA; cycle 28): 0.0
- Relative Abundance Rec1_19, 100 pg F (REC1_19 (TGTT 393) mRNA; cycle 30): 0.1
- Relative Abundance Rec1_19, 100 pg F (REC1_19 (TGTT 393) mRNA; cycle 32): 0.3
- Relative Abundance Rec1_19, 100 pg F (REC1_19 (TGTT 393) mRNA; cycle 34): 0.5
- expression of Rec1_19 at 8 weeks (RT-PCR study), in words (REC1_19 (TGTT 393) mRNA; [9]): decreased
- cholesterol acyl transferase activity [6]: modulate
- Relative Abundance Rec1_2, 500 pg F ([7]; cycle 22): 2.7
- Relative Abundance Rec1_2, 500 pg F ([7]; cycle 24): 0.6
- Relative Abundance Rec1_2, 500 pg F ([7]; cycle 26): 5.0
- Relative Abundance Rec1_2, 500 pg F ([7]; cycle 28): 6.6
- Relative Abundance Rec1_2, 500 pg F ([7]; cycle 30): 2.5
- Relative Abundance Rec1_2, 500 pg F ([7]; cycle 32): 1.6
- expression of Rec1_2 at 8 weeks (RT-PCR study), in words [7, 8]: elevated

Structure (SMILES): COC(=O)C1=C(C)NC(C)=C(C(=O)OC(C)(C)CN(C)CCC(c2ccccc2)c2ccccc2)[C@@H]1c1cccc([N+](=O)[O-])c1.Cl (single isomer, unassigned) [(R)-lercanidipine]
- effectiveness as a ligand to the calcium channel, less effective (calcium channel): 2-3 orders of magnitude
